Reference: US11058659B2, “Methods and compositions for the treatment of ophalmic diseases and disorders” (UNIVERSITY OF SOUTHERN CALIFORNIA, priority 2013, dated 2021)
Entries after “also recorded” stand apart in the source; their conditions may differ.

Assays:
cyclooxygenase-2 (COX-2) = assay: RT-PCR of CNV lesions after treatment: COX-2; format: in vivo
Procedure: (§1) FIG. 7. RT-PCR Data of CNV after treatment. Reduced expression of pro-angiogenic and pro-inflammatory proteins upon treatment with compound 18.
(§2) Compound 18 was prepared using methods known in the art. (For example, see U.S. Pat. Nos. 8,115,023, and 7,683,193). […] (FIG. 3). On Day 7, retinal edema and angiogenesis between the two treatment groups were similar.

VEGF receptor 2 = assay: RT-PCR of CNV lesions after treatment: VEGF receptor 2; format: in vivo
Procedure: as §1, §2

[1] = system: VEGF-induced angiogenesis; assay: VEGF-induced angiogenesis in a rabbit eye model; format: in vivo
Procedure: FIG. 2. Inhibition of angiogenesis by compound 18 in a dose-dependent manner—Effect on VEGF-induced angiogenesis in a rabbit eye model. (A) Study design. To evaluate the impact of compound 18, 10 μg of VEGF in each eye is administered as an intravitreal injection. In this study, the activity of compound 18 is evaluated in a concentration escalation manner from 0.125 to 0.5 mg given as a single dosage. A formulation of compound 18 where the dosage is admixed in a total of 50 μL, was administered immediately after VEGF administration. (B) Results.
FIG. 3. Comparison of compound 18 with bevacizumab (Avastin)—Effect on VEGF-induced angiogenesis in a rabbit eye model. The potency of compound 18 was compared with bevacizumab. (A) Study design. Using a VEGF-induction eye model, where 10 μg of VEGF is injected as an intravitreal administration. One dose of 0.5 mg of compound 18 was compared with 1.25 mg bevacizumab after VEGF induction. (B) Results. […] On Day 7, retinal edema and angiogenesis between the two treatment groups were similar.
as §2

CNV lesions = assay: choroidal neovascularization (CNV) model of age-related macular degeneration (AMD), laser induced lesions supplemented with VEGF; format: in vivo; settings: for CNV lesion number: week 4 of therapy, vs vehicle control; for vessels and edema in the CNV lesions (retinal angiography): by week 4, vs vehicle
Procedure: FIG. 4. Effect of compound 18 in a choroidal neovascularization (CNV) model of age-related macular degeneration (AMD). (A) Study Design: Simultaneous treatment model. Choroidal neovascularization (CNV) model, was used to determine its effect on new blood vessel formation. In this figure, laser induced lesions were further supplemented with 10 μg VEGF intravitreal administration every two weeks. Laser induced AMD lesions penetrated the Bruch's membrane. CNV lesions were treated with 0.5 mg compound 18 administered weekly, where first dosage was given at the time of CNV lesion formation. (B) Results.
FIG. 5. Effect of compound 18 in a choroidal neovascularization (CNV) model of age-related macular degeneration (AMD) A) Study Design: Sequential treatment model. CNV model was used to determine compound 18's effect on new blood vessel formation. Laser induced lesions were supplemented with 10 μg VEGF intravitreal administration every two weeks. CNV lesions were treated with 0.5 mg compound 18 administered weekly, were given one week after CNV lesion formation. (B) Results.
FIG. 6. Quantification of the Lesion Number and Mean Area. CNV lesions were enumerated at baseline, 2 and 4 weeks after CNV lesion formation. (A) Lesion Number. […] (B) Mean Area.
FIG. 8. Optical Coherence Tomography (OCT) of CNV Lesions Over Time. OCT was used to evaluate CNV lesion healing after compound 18 treatment.
FIG. 9. Confocal Scanning Fluorescent Microscope of CNV Lesions. Confocal scanning fluorescent microscopy is used to visualize the level of neovascular growth. In the vehicle treated lesions (Left), extensive neovascular growth is noted after one month.
FIG. 10. Confocal Scanning Electron Microscopy of CNV lesions treated with vehicle (Left) was compared with compound 18 treatment (Right).
as §2

[2] = system: human mammary endothelial cells (HMEC); assay: tube formation assay (HMEC cultured in Geltrex); format: cell-based; settings: 24 hours, concentration escalation, at greater than 100 nM, compared to untreated or no Geltrex
Procedure: FIG. 1. Inhibition of angiogenesis by compound 18 in a dose-dependent manner—Effect on tube formation. The effect of Compound 18 was evaluated using tube formation assay using a concentration escalation design.
as §2

[3] = Day 7, 10 μg VEGF intravitreal, one dose

Molecule	expression of cyclooxygenase-2 (COX-2) (RT-PCR) (cyclooxygenase-2 (COX-2); sequential (SQ) treatment)	expression of cyclooxygenase-2 (COX-2) (RT-PCR) (cyclooxygenase-2 (COX-2); simultaneous (SM) treatment)	expression of VEGF receptor 2 (RT-PCR) (VEGF receptor 2; sequential (SQ) treatment)	expression of VEGF receptor 2 (RT-PCR) (VEGF receptor 2; simultaneous (SM) treatment)	activity profile vs Avastin ([1]; 0.5 mg compound 18 vs 1.25 mg Avastin, Day 3 and Day 7 findings)	retinal edema and angiogenesis, 0.5 mg compound 18 compared to 1.25 mg bevacizumab ([1]; Day 3, 10 μg VEGF intravitreal, one dose)	retinal edema and angiogenesis between the two treatment groups (0.5 mg compound 18 vs 1.25 mg bevacizumab) [1, 3]	level of retinal edema and angiogenesis vs vehicle ([1]; Day 7, 10 μg VEGF intravitreal, single dose, doses >0.25 mg (0.125 to 0.5 mg tested))	neovascular growth in CNV lesions (confocal scanning fluorescent microscopy) (CNV lesions; after one month, vs vehicle treated lesions)	CNV lesion healing by Optical Coherence Tomography (OCT) (CNV lesions; same lesion evaluated at 2 weeks and 4 weeks)	mean CNV area (CNV lesions; sequential (SQ) treatment)	CNV lesion number (CNV lesions; sequential (SQ) treatment)	vessels and edema in the CNV lesions (retinal angiography) (CNV lesions; sequential treatment model, 0.5 mg weekly starting one week after lesion formation)	mean CNV area (CNV lesions; simultaneous (SM) treatment)	CNV lesion number (CNV lesions; simultaneous (SM) treatment)	vessels and edema in the CNV lesions (retinal angiography) (CNV lesions; simultaneous treatment model, 0.5 mg weekly from time of lesion formation)	morphology of CNV lesions (Confocal Scanning Electron Microscopy) (CNV lesions; vs vehicle (neovascular growth penetrating the Bruch's membrane))	inhibition of tube formation (angiogenesis) [2]
CCCCC[C@@H](O)/C=C/c1cccc(/C=C/[C@@H](O)[C@@H](O)CCCC(=O)OC)c1 [Compound 18]	significantly reduced the expression	significantly reduced the expression	significantly reduced the expression	significantly reduced the expression	comparable or improved activity profile vs Avastin	significantly lower retinal edema and angiogenesis	similar	significantly reduced	significant reduction in neovascular growth	able to promote healing of a lesion	reduction in the mean CNV area	significantly reduced CNV lesion	statistically significant reduction in the vessels and edema	reduction in the mean CNV area	significantly reduced CNV lesion	statistically significant reduction in the vessels and edema	thin-walled fenestrated vascular channels with flat configuration	able to inhibit angiogenesis in a dose-response manner; also recorded: notable inhibition of tube formation
bevacizumab: FDA-approved anti-VEGF antibody injected intravitreally [reference compound]							similar											
